Experimental data taken from the NIST ThermoML archive (doi:10.1016/j.fluid.2017.08.005).
Numbers after ± are expanded uncertainties.

Settings: Liquid, Closed cell (Static) method

| Compound | vapor or sublimation pressure (273.15 K) [kPa] | vapor or sublimation pressure (293.15 K) [kPa] | vapor or sublimation pressure (313.15 K) [kPa] | vapor or sublimation pressure (333.15 K) [kPa] | vapor or sublimation pressure (353.15 K) [kPa] |
| --- | --- | --- | --- | --- | --- |
| O=C=O [carbon dioxide] | 3487 ± 13 |  |  |  |  |
| FC(F)Cl [chlorodifluoromethane] | 498 ± 3 | 911 ± 3 | 1529 ± 4 | 2426 ± 5 | 3664 ± 7 |
| C=C [ethene] | 4094 ± 16 |  |  |  |  |
